Data reported in patent US20220362222A1, “ONCE DAILY FORMULATIONS OF TACROLIMUS” (TFF Pharmaceuticals, Inc., priority 2021, published 2022).

Tests used:
[1] = Pharmacokinetics of inhaled tacrolimus in healthy volunteers, 1 mg BID repeat dose group (Part B); type: in vivo, human
Protocol: The study is a blinded, randomized, placebo-controlled, multiple dose, dose-escalation study. Part B begins once the first three cohorts of Part A have completed and safety data has been reviewed. Twenty-four (24) healthy adult male and female (women of non-child-bearing potential only) subjects were enrolled. Eight (8) subjects were assigned to each of three dose levels (1.0 mg BID, 0.5 mg BID, or QD dose of either 1.0, 1.5, or 2.0mg, as determined by the SMC at the conclusion of Cohort 2 and after examining the safety and TDM data from that cohort) with six (6) subjects per cohort receiving tacrolimus inhalation and two (2) subjects receiving placebo.
Screening of subjects occurred within 28 days prior to the first dose administered. Study subjects were randomized to receive either a placebo or tacrolimus inhalation powder by inhalation. The subject assignment were blinded to the investigator, study coordinators and study subjects. Subjects were automatically replaced if they discontinue the study prior to dosing. On Day 1, subjects in each cohort begins receiving tacrolimus or placebo administered twice a day (every 12 hours) for Cohorts 1 and 2, and tacrolimus or placebo administered once per day (every 24 hours) for Cohort 3,through the Plastiape® inhaler. Blood samples and safety measurements were performed over 1 week as scheduled. […]
PK parameters for plasma tacrolimus are calculated as follows, as appropriate: AUC0-24: The area under the concentration-time curve, from time 0 to the 24-hour time point, as calculated by the linear trapezoidal method. If the 24-hour plasma concentration is missing, below the limit of quantification or not reportable, then this parameter will not be calculated. AUC0-t: The area under the concentration-time curve, from time 0 to the last observed non-zero concentration, as calculated by the linear trapezoidal method. […] AUC0-inf is calculated as the sum of AUC0-t plus the ratio of the last measurable plasma concentration to the elimination rate constant. […] CL/F Apparent total body clearance after oral administration, calculated as Dose/AUC0-inf. […] Kel: Apparent first-order terminal elimination rate constant calculated from a semi-log plot of the plasma concentration versus time curve. The parameter will be calculated by linear least-squares regression analysis using the maximum number of points in the terminal log-linear phase (e.g., three or more non-zero plasma concentrations). t1/2: Apparent first-order terminal elimination half-life are calculated as 0.693/Kel. Vz/F: Apparent volume of distribution during the terminal elimination phase after oral administration, calculated as […]. […]

[2] = cited from earlier work
[3] = oral administration, cited from earlier work
[4] = inhalation 1 mg BID, healthy volunteers

With `C=CC[C@@H]1/C=C(\C)C[C@H](C)C[C@H](OC)[C@H]2O[C@@](O)(C(=O)C(=O)N3CCCC[C@H]3C(=O)O[C@H](/C(C)=C/[C@@H]3CC[C@@H](O)[C@H](OC)C3)[C@H](C)[C@@H](O)CC1=O)[C@H](C)C[C@@H]2OC` [tacrolimus, (1R,9S,12S,13R,14S,17R,18E,21S,23S,24R,25S,27R)-1,14-dihydroxy-12-[(E)-1-[(1R,3R,4R)-4-hydroxy-3-methoxycyclohexyl]prop-1-en-2-yl]-23 ,25-dimethoxy-13,19,21,27-tetramethyl-17-prop-2-enyl-11,28-dioxa-4-azatricyclo [22.3.1.0^4.8]octacos-18-ene-2,3,10,16-tetrone] the “tacrolimus plasma exposure, actual arithmetic mean” value ([1]; inhalation 1 mg BID repeat dose, healthy volunteers, preliminary) was 45 ng/mL, the “actual trough values at 12 hours post dose compared with simulated exposure” value ([1]; inhalation 1 mg BID, Day 1 and Day 7) was “closer to the upper 90% confidence interval for simulated exposure” and the “Cmin (trough) concentrations at 12 h compared with oral PK model” value [1, 4] was “slightly higher than predicted”. For the same compound, the “observed Cmax compared with oral PK model” value [1, 4] was “lower than predicted”, the solubility in water [2] was “practically insoluble in water” and the absorption ([3]; Prograf label) was less than 25%. The “variability of absorption (%CV range)” value ([3]; depending on the study) was 28-58%.
